pEC50: −log10 of the molar value.

This experiment concerns ET (Huh-lucubineo-ET) cell line harboring I389luc-ubi-neo/NS3-3′/ET HCV replicon. As to the kind of experiment: Replicon assay (HCV replicon, luciferase readout). Type of experiment: cell-based. The note with it: Hepatitis C virus. Summed up: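 Compounds at 10-point 2-fold dilutions (overall 0.1 nM to […], 0.5% DMSO) were applied to ET cells carrying a luciferase-neo HCV replicon, seeded a day earlier. After 48-72 hours, luciferase-based % inhibition was fitted with a Hill equation for EC50, and parallel WST-1 readings gave TC50.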
A general note: In antiviral work, replicon cells carry a viral genome segment that copies itself.
The term pEC50 denotes the negative decadic logarithm of the EC50, by convention in mol/L. A high value points to a low EC50. In the case of `N#Cc1c(-c2ccoc2)cc(C(F)F)c2nc(C(=O)N3CC=C(c4nccs4)C3)c(Cl)n12` [Compound 169, 3-Chloro-8-difluoromethyl-6-furan-3-yl-2-(3-thiazol-2-yl-2,5-dihydro-pyrrole-1-carbonyl)-imidazo[1,2-a]pyridine-5-carbonitrile], the pEC50 is 6.55. The result for `O=C(c1nc2c(C(F)(F)F)cc(-c3ccoc3)cn2c1CO)N1CC=C(c2nccs2)C1` [Compound 170, (6-Furan-3-yl-3-hydroxymethyl-8-trifluoromethyl-imidazo[1,2-a]pyridin-2-yl)-(3-thiazol-2-yl-2,5-dihydro-pyrrol-1-yl) methanone] reads 7.59. With `O=C(c1nc2c(C(F)(F)F)cc(-c3ccoc3)cn2c1CO)N1CC=C(c2ncccc2F)CC1` [Compound 171, (3-Fluoro-3′,6′-dihydro-2′H-[2,4′]bipyridinyl-1′-yl)-(6-furan-3-yl-3-hydroxymethyl-8-trifluoromethyl-imidazo[1,2-a]pyridin-2-yl)-methanone], the negative-log EC50 (pEC50) is 5.85. This pEC50 is 1.74 log units lower than that of the compound before. In turn, `CC(O)c1c(C(=O)N2CC=C(c3ncccc3F)CC2)nc2c(C(F)(F)F)cc(-c3ccoc3)cn12` (stereo not shown) [Compound 172, (3-Fluoro-3′,6′-dihydro-2′H-[2,4′]bipyridinyl-1′-yl)-[6-furan-3-yl-3-(1-hydroxy-ethyl)-8-trifluoromethyl-imidazo[1,2-a]pyridin-2-yl]-methanone] gave a negative-log EC50 (pEC50) of 5.51. Under `O=C(c1nc2c(C(F)(F)F)cc(-c3cn[nH]c3)cn2c1CO)N1CC=C(c2nccs2)C1` [Compound 173, [3-Hydroxymethyl-6-(1H-pyrazol-4-yl)-8-trifluoromethyl-imidazo[1,2-a]pyridin-2-yl]-(3-thiazol-2-yl-2,5-dihydro-pyrrol-1-yl)-methanone] stands 6.35; under `O=C(c1nc2c(C(F)(F)F)cc(-c3cn[nH]c3)cn2c1Cl)N1CCC(OCC2CC2)CC1` [Compound 174, [3-Chloro-6-(1H-pyrazol-4-yl)-8-trifluoromethyl-imidazo[1,2-a]pyridin-2-yl]-(4-cyclopropylmethoxy-piperidin-1-yl)-methanone], 6.51. Under `O=C(c1nc2c(C(F)(F)F)cc(-c3ccoc3)cn2c1Cl)N1CCC(OCC2CC2)CC1` [Compound 175, (3-Chloro-6-furan-3-yl-8-trifluoromethyl-imidazo[1,2-a]pyridin-2-yl)-(4-cyclopropylmethoxy-piperidin-1-yl)-methanone] stands 6.10; under `CCCOC1CCN(C(=O)c2nc3c(C(F)(F)F)cc(-c4cn[nH]c4)cn3c2Cl)CC1` [Compound 176, [3-Chloro-6-(1H-pyrazol-4-yl)-8-trifluoromethyl-imidazo[1,2-a]pyridin-2-yl]-(4-propoxy-piperidin-1-yl)-methanone], 6.05; under `CCOC1CCN(C(=O)c2nc3c(C(F)(F)F)cc(-c4cn[nH]c4)cn3c2Cl)CC1` [Compound 177, [3-Chloro-6-(1H-pyrazol-4-yl)-8-trifluoromethyl-imidazo[1,2-a]pyridin-2-yl]-(4-ethoxy-piperidin-1-yl)-methanone], 5.97.

Take `COc1cccc(NC2CCN(C(=O)c3nc4c(C(F)(F)F)cc(-c5ccoc5)cn4c3Cl)C2)c1` (stereo not shown) [Compound 178, (3-Chloro-6-furan-3-yl-8-trifluoromethyl-imidazo[1,2-a]pyridin-2-yl)-[3-(3-methoxy-phenylamino)-pyrrolidin-1-yl]-methanone]: the negative-log EC50 (pEC50) is 5.62. `O=C(c1nc2c(C(F)(F)F)cc(-c3cn[nH]c3)cn2c1Cl)N1CCC(Nc2ccccc2)C1` (stereo not shown) [Compound 179, [3-Chloro-6-(1H-pyrazol-4-yl)-8-trifluoromethyl-imidazo[1,2-a]pyridin-2-yl]-(3-phenylamino-pyrrolidin-1-yl)-methanone] gave a pEC50 of 4.99.

The compound `COc1ccc(NC2CCN(C(=O)c3nc4c(C(F)(F)F)cc(-c5ccoc5)cn4c3Cl)C2)cc1` (stereo not shown) [Compound 180, (3-Chloro-6-furan-3-yl-8-trifluoromethyl-imidazo[1,2-a]pyridin-2-yl)-[3-(4-methoxy-phenylamino)-pyrrolidin-1-yl]-methanone] had a pEC50 of 4.92. The result for `CCOC1CCN(C(=O)c2nc3c(C(F)(F)F)cc(-c4cn[nH]c4)cn3c2Cl)C1` (stereo not shown) [Compound 181, [3-Chloro-6-(1H-pyrazol-4-yl)-8-trifluoromethyl-imidazo[1,2-a]pyridin-2-yl]-(3-ethoxy-pyrrolidin-1-yl)-methanone] reads 4.87; that for `NC(=O)COC1CCN(C(=O)c2nc3c(C(F)(F)F)cc(-c4cn[nH]c4)cn3c2Cl)CC1` [Compound 182, 2-{1-[3-Chloro-6-(1H-pyrazol-4-yl)-8-trifluoromethyl-imidazo[1,2-a]pyridine-2-carbonyl]-piperidin-4-yloxy}-acetamide], 4.26; that for `O=C(c1nc2c(C(F)(F)F)cc(-c3ccoc3)cn2c1Cl)N1CCC(Nc2ncccn2)C1` (stereo not shown) [Compound 183, (3-Chloro-6-furan-3-yl-8-trifluoromethyl-imidazo [1,2-a]pyridin-2-yl)-[3-(pyrimidin-2-ylamino)-pyrrolidin-1-yl]-methanone], 4.26. Consider `O=C(Cc1cn2cc(-c3ccoc3)cc(C(F)(F)F)c2n1)Nc1nccs1` [Compound 184, 2-(6-Furan-3-yl-8-trifluoromethyl-imidazo[1,2-a]pyridin-2-yl)-N-thiazol-2-yl-acetamide], for which the pEC50 was less than 4.30.

In the case of `O=C(Cc1cn2cc(-c3ccoc3)cc(C(F)(F)F)c2n1)NCc1ccccc1` [Compound 185, N-Benzyl-2-(6-furan-3-yl-8-trifluoromethyl-imidazo[1,2-a]pyridin-2-yl)-acetamide], the pEC50 is 5.32. Regarding `O=C(Cc1cn2cc(-c3ccoc3)cc(C(F)(F)F)c2n1)N1CC=C(c2nccs2)C1` [Compound 186, 2-(6-Furan-3-yl-8-trifluoromethyl-imidazo[1,2-a]pyridin-2-yl)-1-(3-thiazol-2-yl-2,5-dihydro-pyrrol-1-yl)-ethanone], the pEC50 is 5.22. The pEC50 values of the last two compounds are within 0.2 log units of each other. On to `O=C(Cc1cn2cc(-c3ccoc3)cc(C(F)(F)F)c2n1)N1CCC(c2cccs2)C1` (stereo not shown) [Compound 187, 2-(6-Furan-3-yl-8-trifluoromethyl-imidazo[1,2-a]pyridin-2-yl)-1-(3-thiophen-2-yl-pyrrolidin-1-yl)-ethanone], for which the pEC50 is 5.70. This pEC50 is 0.48 log units higher than that of the compound before.

Compound `O=C(Cc1cn2cc(-c3ccoc3)cc(C(F)(F)F)c2n1)N1CCCC1c1cccs1` (stereo not shown) [Compound 188, 2-(6-Furan-3-yl-8-trifluoromethyl-imidazo[1,2-a]pyridin-2-yl)-1-(2-thiophen-2-yl-pyrrolidin-1-yl)-ethanone] had a pEC50 of less than 4.30. In turn, `O=C(Cc1cn2cc(-c3ccoc3)cc(C(F)(F)F)c2n1)NS(=O)(=O)c1cccs1` [Compound 189, Thiophene-2-sulfonic acid [2-(6-furan-3-yl-8-trifluoromethyl-imidazo[1,2-a]pyridin-2-yl)-acetyl]-amide] showed a negative-log EC50 (pEC50) of less than 4.30. Take `CS(=O)(=O)NC1CN(C(=O)Cc2cn3cc(-c4ccoc4)cc(C(F)(F)F)c3n2)C1` [Compound 190, N-{1-[2-(6-Furan-3-yl-8-trifluoromethyl-imidazo[1,2-a]pyridin-2-yl)-acetyl]-azetidin-3-yl}-methanesulfonamide]: the pEC50 was less than 4.30.

In turn, `O=C(Cc1cn2cc(-c3ccoc3)cc(C(F)(F)F)c2n1)N1CC=C(c2nccs2)CC1` [Compound 191, 2-(6-Furan-3-yl-8-trifluoromethyl-imidazo[1,2-a]pyridin-2-yl)-1-(4-thiazol-2-yl-3,6-dihydro-2H-pyridin-1-yl)-ethanone] had a negative logarithm of the EC50 (pEC50) of less than 4.30. In turn, `O=C(Cc1cn2cc(-c3ccoc3)cc(C(F)(F)F)c2n1)NCCc1ccccc1` [Compound 192, 2-(6-Furan-3-yl-8-trifluoromethyl-imidazo[1,2-a]pyridin-2-yl)-N-phenethyl-acetamide] gave a negative logarithm of the EC50 (pEC50) of less than 4.30.

The compound `O=C(NC1CCC(c2ccccc2)CC1)c1nc2c(C(F)(F)F)cc(-c3ccoc3)cn2c1Cl` (stereo not shown) [Compound 193, 3-Chloro-6-furan-3-yl-8-trifluoromethyl-imidazo[1,2-a]pyridine-2-carboxylic acid (4-phenyl-cyclohexyl)-amide] gave a pEC50 of 5.60.

`O=C(c1ccccc1)C1CCN(C(=O)c2nc3c(C(F)(F)F)cc(-c4ccoc4)cn3c2Cl)CC1` [Compound 194, (4-Benzoyl-piperidin-1-yl)-(3-chloro-6-furan-3-yl-8-trifluoromethyl-imidazo[1,2-a]pyridin-2-yl)-methanone] gave a pEC50 of 6.05. `O=C(c1nc2c(C(F)(F)F)cc(-c3ccoc3)cn2c1Cl)N1CCC(N2CCCC2)CC1` [Compound 195, (3-Chloro-6-furan-3-yl-8-trifluoromethyl-imidazo[1,2-a]pyridin-2-yl)-(4-pyrrolidin-1-yl-piperidin-1-yl)-methanone] showed a negative-log EC50 (pEC50) of less than 4.30. In turn, `O=C(c1nc2c(C(F)(F)F)cc(-c3ccoc3)cn2c1Cl)N1CCC(n2ccnc2)CC1` [Compound 197, (3-Chloro-6-furan-3-yl-8-trifluoromethyl-imidazo[1,2-a]pyridin-2-yl)-(4-imidazol-1-yl-piperidin-1-yl)-methanone] showed a pEC50 of 5.46. Under `O=C(c1nc2c(C(F)(F)F)cc(-c3ccoc3)cn2c1Cl)N1CC=C(C#Cc2cccnc2)CC1` [Compound 198, (3-Chloro-6-furan-3-yl-8-trifluoromethyl-imidazo[1,2-a]pyridin-2-yl)-(4-pyridin-3-ylethynyl-3,6-dihydro-2H-pyridin-1-yl)-methanone] stands 4.84; under `CC(C)(C)C#CC1=CCN(C(=O)c2nc3c(C(F)(F)F)cc(-c4ccoc4)cn3c2Cl)CC1` [Compound 199, (3-Chloro-6-furan-3-yl-8-trifluoromethyl-imidazo[1,2-a]pyridin-2-yl)-[4-(3,3-dimethyl-but-1-ynyl)-3,6-dihydro-2H-pyridin-1-yl]-methanone], less than 4.30. Take `O=C(c1nc2c(C(F)(F)F)cc(-c3ccoc3)cn2c1Cl)N1CC=C(C#CC2CCCC2)CC1` [Compound 200, (3-Chloro-6-furan-3-yl-8-trifluoromethyl-imidazo[1,2-a]pyridin-2-yl)-(4-cyclopentylethynyl-3,6-dihydro-2H-pyridin-1-yl)-methanone]: the pEC50 is less than 4.30.

These data come from patent publication US20100204265A1 (priority 2009, published 2010).
